Key:
[1] = test system: wild-type mice; assay: Open-field locomotor activity, wild-type littermates; assay type: in vivo
Text: Heterozygote coloboma mice were originally purchased from The Jackson Laboratory (Bar Harbor, Me.) and were bred and maintained in our colony. In the current study, 20 mutant mice and 25 wild-type littermates, all aged 8 to 10 weeks, were used. Animals were divided into 4 groups: mutant/drug-treatment (n=11), mutant/vehicle-control (n=9), wild-type/drug-treatment (n=13), wild-type/vehicle-control (n=12). Age and gender were balanced among groups. All animals were housed as littermates (2-4 mice per cage) and were maintained on ad libitum food and water with a 12 hr light/dark cycle.
Open-field testing was performed under normal lighting conditions. Mice were brought into the experimental room and allowed at least 1 hr of acclimatization. Thirty minutes prior to testing, animals received an ip. injection of either d-amphetamine (4 mg/kg), eltoprazine (0.5 mg/kg) or saline. The mice were then placed in the activity monitor arenas (27×27×20 cm, Med Associates). Four animals of matching genotype and treatment were tested at one time. Each testing session lasted 40 minutes, after which animals were returned to their home cages. An automated infrared beam array system measured locomotor activity (total distance traveled) and number of center entries (zone crossings).

[2] = test system: 5-HT receptor subtypes; conditions: cited from earlier work
[3] = test system: C3H mice; assay: Peak procedure (30 second reinforcement interval), C3H mice; assay type: in vivo
Experimental: The peak procedure is a behavioral model designed to assess an animal's ability to learn an appropriate time period in which to perform a task and a time period in which the animal will be rewarded if the task is performed. The model provides information concerning excitatory and inhibitory components of behavior, as subjects must respond to perform a task when appropriate and stop responding in an “empty trial” when time for reward has elapsed and the reward has not been delivered. The task is sensitive to conditions where there is a failure in inhibitory mechanisms, such as seems to be the case for ADHD (Pliszka et al., Biol. Psychiatry, 48:238-46, 2000).
In the peak procedure, mice are trained to work for food that is delivered at the same time in each trial, but withdrawn in some unreinforced trials. Typically, the response rate increases up to a maximum around the reinforcement time, and then decreases to a low toward the end of the trial. The shape of the response rate indicates whether the animal is sensitive to the time of reinforcement. To be able to perform well in this model, the animals need to be able to learn several tasks. First, the animal must make an association between a response (lever pressing, nose poking or key pecking) and the delivery of reward. Second, the animal must be able to perceive and remember time. Third, the animal must act on its remembered time by starting and then stopping or inhibiting the response. Fourth, the animal must be able to compare the elapsed time in the trials with its remembered time to reinforcement. […] Accuracy is measured by looking at the shape of the response function; therefore, if the response function is sharper and centered on the reinforcement time it supports a conclusion that attentional processes have been heightened.
Mice were food deprived to 85-90% of their free-feeding body weight by supplementing food earned during experimental sessions with a measured amount after the session had ended. […]

Question: Which “locomotor activity (distance traveled or zones crossed)” value ([1]; 0.5 mg/kg i.p.) does the source give for `c1cc2c(c(N3CCNCC3)c1)OCCO2` [eltoprazine, 1-(2,3-dihydro-1,4-benzodioxanyl-5-yl) piperazine] here?
Answer: did not influence the locomotor activity

Question: And the “exploratory preference (center vs periphery of arena)” value ([1]; 0.5 mg/kg i.p. (FIG. 6A, 6B))?
Answer: no effect on exploratory preference

Question: What about the rearing behavior ([1]; 0.5 mg/kg i.p. vs saline (FIG. 6C, 6D)) of the same molecule?
Answer: same pattern of rearing behavior

Question: And the “affinity for the 5-HT1A, 5-HT1B, and 5-HT2C receptors” value [2]?
Answer: roughly equipotent affinity

Question: And the “affinity for the 5-HT1D receptor” value ([2]; compared with serotonin)?
Answer: relatively low affinity

Question: And the “relative response rate curve in peak trials” value ([3]; 0.1 and 0.9 mg/kg (FIG. 3))?
Answer: cognitive enhancement was observed

Question: What about the “relative response rate curve in peak trials” value ([3]; 1, 2 and 4 mg/kg (FIGS. 2A-C)) of the same molecule?
Answer: flatter than the saline curve
